Assay results: PMC10527014 (Antiviral research, 2023)
Converted amounts (≈) assume the structure as drawn. “Also recorded” adds a separate entry of the source. Like-named read-outs stand apart in the source and are kept apart here.

Tests used:
EV-71 Tainan/4643/98 [1] = assay: Virus yield reduction assay, EV-71 Tainan/4643/98; format: cell-based; conditions: read-out: 90% Effective concentration EC90; EV-71 Tainan/4643/98, Vero 76, virus yield reduction
hERG = hERG (Homo sapiens, UniProt Q12809); assay: hERG inhibition; conditions: read-out: hERG inhibition IC50
[2] = test system: Human Echovirus-30 Bastianni; conditions: read-out: 50% Effective concentration EC50, RD, lowest concentration tested 0.032 μM
[3] = test system: Human Echovirus-11 Gregory; assay: Virus yield reduction assay, Human Echovirus-11 Gregory; format: cell-based; conditions: read-out: 90% Effective concentration EC90, RD, lowest concentration tested 0.032 μM
Human plasma stability = format: in vitro ADME; conditions: @ 5 hr, 37°C
CYP3A4 [4] = target: CYP3A4 (Homo sapiens, UniProt P08684)
CYP1A2 = CYP1A2 (Homo sapiens, UniProt P05177); assay: CYP inhibition, CYP1A2; format: in vitro ADME; conditions: read-out: CYP inhibition
Caco-2 = Caco-2 permeability; format: in vitro ADME
[5] = test system: Influenza H1N1 California/07/2009; assay: Virus yield reduction assay, Influenza H1N1 California/07/2009; format: cell-based; conditions: read-out: 90% Effective concentration EC90, Influenza H1N1 California/07/2009, MDCK
Vero = assay: Cytotoxicity; format: cell-based; conditions: read-out: 50% Cytotoxic concentration CC50, line of Coxsackie B5
EV-D68 US/KY/14-18953 [6] = assay: Virus yield reduction assay, EV-D68 US/KY/14-18953; format: cell-based; conditions: read-out: 90% Effective concentration EC90, EV-D68 US/KY/14-18953, RD
CYP3A4 [7] = conditions: 1 μM, rifampicin as positive control, previously tested
[8] = test system: Influenza H1N1 California/07/2009; assay: CPE reduction assay, Influenza H1N1 California/07/2009; format: cell-based; conditions: read-out: 50% Effective concentration EC50, Influenza H1N1 California/07/2009, MDCK
[9] = Mouse liver microsomes stability; format: in vitro ADME
EV-D68 = assay: In vitro inhibition of EV-D68; format: cell-based; conditions: read-out: EC50 against EV-D68; discussion
[10] = test system: Coxsackievirus B3-Woodruff (CVB3); format: cell-based; conditions: read-out: Inhibitory concentration EC50 against CVB3-Woodruff; HeLa cells; infecting at low MOI 0.1 PFU / cell and adding drug after infection is established; ± SEM
[11] = Human plasma protein binding; format: in vitro ADME
[12] = test system: Human Echovirus-30 Bastianni; assay: Virus yield reduction assay, Human Echovirus-30 Bastianni; format: cell-based; conditions: read-out: 90% Effective concentration EC90, RD, lowest concentration tested 0.032 μM
[13] = test system: EV-D68 MP30 PP (mouse-adapted); assay: EV-D68 neurological infection; format: in vivo, AG129 mice; conditions: for Mean day of death: placebo 5.5 days
Coxsackie B3 HA 201933 = assay: Virus yield reduction assay, Coxsackie B3 HA 201933; format: cell-based; conditions: read-out: 90% Effective concentration EC90; Coxsackie B3 HA 201933, Vero 76, virus yield reduction
Coxsackie B3 Nancy = conditions: read-out: 50% Effective concentration EC50, Vero 76, CPE
MDCK = assay: Cytotoxicity; format: cell-based; conditions: read-out: 50% Cytotoxic concentration CC50, line of Influenza H1N1
[14] = Mouse plasma protein binding; format: in vitro ADME
[15] = Human liver microsomes stability; format: in vitro ADME
[16] = test system: ma-EV-D68 US/MO/14-18949 (Mouse adapted); assay: CPE reduction assay, ma-EV-D68 US/MO/14-18949; format: cell-based; conditions: read-out: 50% Effective concentration EC50, RD
RD = assay: Cytotoxicity; format: cell-based, human
EV-D68 US/KY/14-18953 [17] = conditions: read-out: 50% Effective concentration EC50; EV-D68 US/KY/14-18953, RD, CPE
Polio virus 1 Mahoney = format: cell-based; conditions: read-out: 50% Effective concentration EC50, Vero 76, CPE
SARS-CoV-2 USA/WA1/2020 = assay: CPE reduction assay, SARS-CoV-2 USA/WA1/2020; format: cell-based; conditions: read-out: 50% Effective concentration EC50; SARS-CoV-2 USA/WA1/2020, Vero 76, CPE
[18] = test system: Human Echovirus-11 Gregory; conditions: read-out: 50% Effective concentration EC50, RD, lowest concentration tested 0.032 μM
CYP2C9 = CYP2C9 (Homo sapiens, UniProt P11712); assay: CYP inhibition, CYP2C9; format: in vitro ADME; conditions: read-out: CYP inhibition
Solubility = format: physicochemical
EV-71 Tainan/4643/98 [19] = conditions: read-out: 50% Effective concentration EC50; EV-71 Tainan/4643/98, Vero 76, CPE

Sequence of CYP3A4 (Homo sapiens, UniProt P08684) (P08684 whole entry): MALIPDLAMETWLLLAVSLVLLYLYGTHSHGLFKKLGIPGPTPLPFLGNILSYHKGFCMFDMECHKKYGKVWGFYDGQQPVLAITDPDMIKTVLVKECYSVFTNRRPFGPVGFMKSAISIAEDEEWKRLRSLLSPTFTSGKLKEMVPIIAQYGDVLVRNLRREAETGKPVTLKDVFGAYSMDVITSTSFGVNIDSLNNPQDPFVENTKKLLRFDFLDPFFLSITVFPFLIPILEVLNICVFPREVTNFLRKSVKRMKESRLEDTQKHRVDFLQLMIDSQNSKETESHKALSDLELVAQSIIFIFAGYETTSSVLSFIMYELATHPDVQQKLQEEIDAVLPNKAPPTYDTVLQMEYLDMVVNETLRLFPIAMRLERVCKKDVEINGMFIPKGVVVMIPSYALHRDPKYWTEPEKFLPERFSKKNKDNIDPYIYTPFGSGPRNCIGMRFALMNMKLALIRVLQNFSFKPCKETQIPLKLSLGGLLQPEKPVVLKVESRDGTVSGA
Sequence of CYP1A2 (P05177 whole entry): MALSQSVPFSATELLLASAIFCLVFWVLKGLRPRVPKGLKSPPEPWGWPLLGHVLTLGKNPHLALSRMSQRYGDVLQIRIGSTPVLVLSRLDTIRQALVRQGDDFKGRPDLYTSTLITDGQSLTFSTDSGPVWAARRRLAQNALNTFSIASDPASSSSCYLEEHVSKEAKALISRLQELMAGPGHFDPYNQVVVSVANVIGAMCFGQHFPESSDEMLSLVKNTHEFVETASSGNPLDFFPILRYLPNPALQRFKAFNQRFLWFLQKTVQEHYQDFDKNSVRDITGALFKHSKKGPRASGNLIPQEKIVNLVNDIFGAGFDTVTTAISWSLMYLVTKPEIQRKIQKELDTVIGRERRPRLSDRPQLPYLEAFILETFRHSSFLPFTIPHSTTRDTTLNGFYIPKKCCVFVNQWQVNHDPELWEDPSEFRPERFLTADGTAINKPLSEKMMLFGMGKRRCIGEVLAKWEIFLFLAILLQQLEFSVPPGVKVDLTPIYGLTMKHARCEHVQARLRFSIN
Sequence of CYP2C9 (P11712 whole entry): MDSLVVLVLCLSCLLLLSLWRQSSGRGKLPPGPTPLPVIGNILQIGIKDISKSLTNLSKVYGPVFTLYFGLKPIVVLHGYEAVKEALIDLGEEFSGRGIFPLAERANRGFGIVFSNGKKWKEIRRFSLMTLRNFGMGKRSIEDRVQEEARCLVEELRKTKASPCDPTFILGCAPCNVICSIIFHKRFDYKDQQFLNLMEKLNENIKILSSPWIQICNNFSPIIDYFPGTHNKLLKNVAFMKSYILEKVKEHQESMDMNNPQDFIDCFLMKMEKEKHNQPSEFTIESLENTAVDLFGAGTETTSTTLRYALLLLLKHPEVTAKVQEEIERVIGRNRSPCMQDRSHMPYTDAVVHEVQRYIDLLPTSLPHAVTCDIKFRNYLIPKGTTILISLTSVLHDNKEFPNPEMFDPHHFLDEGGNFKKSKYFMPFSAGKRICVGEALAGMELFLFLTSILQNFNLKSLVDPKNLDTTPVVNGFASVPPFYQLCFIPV
Sequence of hERG (Q12809 whole entry): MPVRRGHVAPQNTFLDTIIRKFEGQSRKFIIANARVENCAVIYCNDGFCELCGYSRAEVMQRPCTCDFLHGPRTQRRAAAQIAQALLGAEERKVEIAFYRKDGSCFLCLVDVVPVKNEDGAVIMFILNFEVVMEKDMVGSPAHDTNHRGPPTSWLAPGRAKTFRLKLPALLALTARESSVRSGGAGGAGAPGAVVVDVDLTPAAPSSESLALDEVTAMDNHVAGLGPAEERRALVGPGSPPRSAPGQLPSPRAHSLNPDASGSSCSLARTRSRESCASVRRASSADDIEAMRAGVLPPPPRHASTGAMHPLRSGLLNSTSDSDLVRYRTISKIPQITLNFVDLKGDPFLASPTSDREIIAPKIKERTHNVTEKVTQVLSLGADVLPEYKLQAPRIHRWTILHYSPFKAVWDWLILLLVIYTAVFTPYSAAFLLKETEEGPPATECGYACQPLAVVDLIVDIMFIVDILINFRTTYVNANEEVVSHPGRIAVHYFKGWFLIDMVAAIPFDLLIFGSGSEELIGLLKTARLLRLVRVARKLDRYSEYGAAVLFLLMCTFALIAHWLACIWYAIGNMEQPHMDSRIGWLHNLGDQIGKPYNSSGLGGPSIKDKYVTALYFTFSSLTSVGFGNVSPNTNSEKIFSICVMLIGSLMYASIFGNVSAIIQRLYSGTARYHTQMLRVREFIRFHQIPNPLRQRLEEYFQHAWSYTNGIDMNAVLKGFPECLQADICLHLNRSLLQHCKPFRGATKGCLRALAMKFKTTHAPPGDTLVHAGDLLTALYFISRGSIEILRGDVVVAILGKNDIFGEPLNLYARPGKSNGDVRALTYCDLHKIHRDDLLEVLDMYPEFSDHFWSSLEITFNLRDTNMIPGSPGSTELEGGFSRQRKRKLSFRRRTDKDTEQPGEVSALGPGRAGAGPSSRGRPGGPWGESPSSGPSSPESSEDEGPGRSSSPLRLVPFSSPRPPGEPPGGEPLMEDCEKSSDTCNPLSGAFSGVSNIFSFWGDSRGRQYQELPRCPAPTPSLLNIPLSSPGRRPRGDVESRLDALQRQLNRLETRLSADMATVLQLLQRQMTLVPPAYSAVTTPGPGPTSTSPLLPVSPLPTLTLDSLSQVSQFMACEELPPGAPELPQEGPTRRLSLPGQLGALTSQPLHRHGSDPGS

**Q.** With `Cc1cc(-c2noc(C(F)(F)F)n2)ccc1OCCCc1cc(C(=O)N(C)C)no1` [compound 11526092, 3-(3-methyl-4-(3-(3-N,N-dimethylcarbamoyl-isoxazol-5-yl)propoxy)phenyl)-5-trifluoromethyl-1,2,4-oxadiazole] as the compound, how does the EC90 (EV-71 Tainan/4643/98 [1]) read?
**A.** 2.45 µM

**Q.** What about the IC50 (hERG) of the same compound?
**A.** > 100 µM

**Q.** What about the EC50 [2] of the same compound?
**A.** < 0.032 µM

**Q.** What about the EC90 [3] of the same compound?
**A.** < 0.032 µM

**Q.** And the Human plasma stability (Human plasma stability)?
**A.** 93.9% @ 5 hr, 37 °C

**Q.** What about the “Effect on CYP3A4 (in words)” value (CYP3A4 [4]; human liver microsomes, at higher concentrations (Fig. S21)) of the same compound?
**A.** activation (or autoactivation) of CYP3A4; also recorded: * CYP3A4 demonstrates activation with 11526092

**Q.** And the IC50 (CYP3A4 [4]; read-out: CYP inhibition, CYP3A4)?
**A.** > 50 µM

**Q.** What about the IC50 (CYP1A2) of the same compound?
**A.** > 50 µM

**Q.** And the “Caco-2 Efflux ratio” value (Caco-2)?
**A.** 3.5

**Q.** And the “Caco-2 Papp A-B” value (Caco-2)?
**A.** 880 ×10⁻⁶ cm/s

**Q.** What about the “Caco-2 Papp B-A” value (Caco-2) of the same compound?
**A.** 3090 ×10⁻⁶ cm/s

**Q.** And the “P-gp substrate (in words, from Caco-2 data)” value (Caco-2)?
**A.** likely a P-gp substrate

**Q.** What about the EC90 [5] of the same compound?
**A.** 9.4 µM

**Q.** And the CC50 (Vero)?
**A.** 59.1 µM

**Q.** And the EC90 (EV-D68 US/KY/14-18953 [6])?
**A.** 0.078 µM

**Q.** What about the “CYP3A induction, of control” value (CYP3A4 [7]) of the same compound?
**A.** 3 % of control

**Q.** What about the CYP3A induction (CYP3A4 [7]; single donor in duplicate) of the same compound?
**A.** 1.2 x

**Q.** What about the EC50 [8] of the same compound?
**A.** 25.9 µM

**Q.** What about the “Mouse liver microsomes stability (in words)” value [9] of the same compound?
**A.** poor mouse microsomal stability; also recorded: unstable

**Q.** What about the “Mouse liver microsomes CLint” value ([9]; mouse) of the same compound?
**A.** 70.6 μL/min/mg protein

**Q.** What about the “Mouse liver microsomes t1/2” value ([9]; mouse) of the same compound?
**A.** 19.6 min

**Q.** What about the EC50 (EV-D68) of the same compound?
**A.** 0.059 µM

**Q.** And the EC50 [10]?
**A.** 0.016 µM

**Q.** And the “Human plasma protein binding, stability” value [11]?
**A.** 93.9%

**Q.** What about the “Human plasma protein binding, bound” value ([11]; human) of the same compound?
**A.** 99.7%

**Q.** And the EC90 [12]?
**A.** < 0.032 µM

**Q.** What about the “Mean day of death” value ([13]; 1 mg 11526092-treated group) of the same compound?
**A.** 6.3 days

**Q.** And the “Mean day of death” value ([13]; 3 mg 11526092-treated group)?
**A.** 5.4 days

**Q.** And the “Mean day of death” value ([13]; 10 mg 11526092-treated group)?
**A.** 4.3 days

**Q.** What about the “Efficacy in the acute flaccid myelitis neurological infection model” value ([13]; abstract) of the same compound?
**A.** did not show efficacy

**Q.** What about the Neurological scores ([13]; post-challenge study) of the same compound?
**A.** none of the 1526092-treated mice showed a statistically significant reduction in neurological scores

**Q.** What about the “Protection from challenge infection (in words)” value ([13]; pre-challenge study) of the same compound?
**A.** None of the pre-challenge 1526092-treated mice were protected from challenge infection

**Q.** And the EC90 (Coxsackie B3 HA 201933)?
**A.** 7.78 µM

**Q.** And the EC50 (Coxsackie B3 Nancy)?
**A.** 1.27 µM

**Q.** What about the CC50 (MDCK) of the same compound?
**A.** 44.8 µM

**Q.** What about the “Mouse plasma protein binding, stability” value [14] of the same compound?
**A.** 88.1%

**Q.** And the “Mouse plasma protein binding, bound” value ([14]; mouse)?
**A.** 99.8%

**Q.** What about the “Human liver microsomes stability (in words)” value [15] of the same compound?
**A.** metabolically stable

**Q.** And the “Human liver microsomes T1/2” value ([15]; human)?
**A.** 55.3 min

**Q.** And the “Human liver microsomes clearance” value ([15]; human)?
**A.** 25.1 μL /min/mg protein

**Q.** And the EC50 [16]?
**A.** 0.028 µM

**Q.** And the CC50 (RD; read-out: 50% Cytotoxic concentration CC50, line of EV-D68 US/KY/14-18953)?
**A.** 2.4 µM

**Q.** And the CC50 (RD; read-out: 50% Cytotoxic concentration CC50, line of EV-D68 US/MO/14-18949)?
**A.** 28 µM

**Q.** And the CC50 (RD; read-out: 50% Cytotoxic concentration CC50, line of Human Echovirus-11)?
**A.** 18 µM

**Q.** And the CC50 (RD; read-out: 50% Cytotoxic concentration CC50, line of Human Echovirus-30)?
**A.** 11 µM

**Q.** And the EC50 (EV-D68 US/KY/14-18953 [17])?
**A.** 0.042 µM

**Q.** What about the EC50 (Polio virus 1 Mahoney) of the same compound?
**A.** 0.57 µM

**Q.** And the EC50 (SARS-CoV-2 USA/WA1/2020)?
**A.** > 7.54 µM

**Q.** And the EC50 [18]?
**A.** < 0.032 µM

**Q.** What about the IC50 (CYP2C9) of the same compound?
**A.** 5 µM

**Q.** What about the “Solubility (in words)” value (Solubility) of the same compound?
**A.** low solubility

**Q.** What about the Solubility (Solubility; Buffer pH 7.4) of the same compound?
**A.** 0.11 µM (≈ 0.0467 µg/mL)

**Q.** What about the Solubility (Solubility; Fasted State Simulated Gastric Fluid (FaSSGF)) of the same compound?
**A.** 0.55 µM (≈ 0.233 µg/mL)

**Q.** What about the Solubility (Solubility; Fasted State Simulated Intestinal Fluid (FaSSIF)) of the same compound?
**A.** 12.05 µM (≈ 5.11 µg/mL)

**Q.** And the EC50 (EV-71 Tainan/4643/98 [19])?
**A.** 4.24 µM
